Legend:
[1] = system: T-REx-293-NTSR1-GFP cells; assay: High-throughput human miRNA mimic library screen, image-based per cell green fluorescence (NTSR1-GFP expression); conditions: per cell green fluorescence intensity; for MAD-based z-score: 72 h after transfection plus 24 h tetracycline induction
Protocol: T-REx-293-NTSR1-GFP cells were screened with a miRNA mimic library (Qiagen) based on Sanger miRBase™ 13.0 and consisting of 875 miRNAs mimics. For transfection, 0.8 pmol of each mimic was spotted to 384 well plate wells (Corning) and 20 μL of serum-free DMEM containing 0.1 μL of Lipofectamine™ RNAiMax (Life Technologies) was then added to each well. This lipid-miRNA mixture was incubated at ambient temperature for 30 min prior to adding 2000 cells in 20 μL of DMEM containing 20% certified FBS (Gibco). Transfected cells were incubated at 37° C. in 5% CO2 for 72 hours and induced with 1 μg/mL tetracycline for 24 hours for NTSR1-GFP expression. Cells were then fixed with 2% paraformaldehyde (Electron Microscopy Sciences), stained with Hoechst™ 33342 (Life Technologies) for 45 minutes and gently washed with PBS. Plates were imaged with an ImageXpress Micro XL™ (Molecular Devices). Total cell number and per cell green fluorescence intensity were calculated using MetaXpress™ software (Molecular Devices) employing the Multi-Wavelength Cell Scoring™ application module. […] A full column of positive control siRNA targeting GFP (GFP-22 siRNA, Qiagen) was also used as on-plate reference for transfection efficiency. The median absolute deviation (MAD)-based z-score was calculated for each sample.

NTSR1 = assay: [3H]NT binding assay on detergent-solubilized cells for functional expression of NTSR1; type: cell-based; conditions: for improvement of functional expression of NTSR1 compared with siN.C.: [3H]NT binding
Protocol: Validation transfections were performed in 12-well plates with miScript™ miRNA mimics (Qiagen, Cat. No. 219600-S0), SilencerSelect™ Negative Control #2 and lethal control siRNA (Qiagen AllStars Cell Death Control™) served as a control for transfection efficiency. Cells were transfected as described for screening except 0.15 million cells were transfected with 40 nM miRNA using 6.25 ul Lipofectamine™ RNAiMax in a total volume of 1 mL of media. 72 hours after transfection, cells were induced with 1 μg/mL tetracycline. 24 hours later, cells from each well were detached with non-enzymatic cell dissociation buffer (Gibco, Cat. No. 13150-016) and washed twice with cold PBS. Cell densities and viability were determined by trypan blue exclusion using a CEDEX™ cell quantification system (Roche, Mannheim, Germany). Based on the counts, cell densities were adjusted to 0.5 million cells/ml with PBS and then subject to flow cytometry analysis. The remaining cells were pelleted and frozen on dry ice for [^3H]NT binding assays.
The detergents n-Dodecyl-β-D-maltoside (LM), 3-[(3-cholamidopyropyl) dimethylammonio]-1-propane sulfonate (CHAPS) and cholesteryl hemisuccinate Tris salt (CHS) were obtained from Anatrace. Cell pellets from 2 mL of suspension culture were suspended in Tris-glycerol-NaCl buffer. Then the detergents LM, CHAPS and CHS were added to give a final buffer composition of 50 mM TrisHCl pH 7.4, 200 mM NaCl, 30% (v/v) glycerol, 1% (w/v) LM, and 0.6% (w/v) CHAPS and 0.12% (w/v) CHS in a total volume of 0.5 mL. The samples were placed on a rotating mixer at 4° C. for 1 hour. Cell debris and non-solubilized material were removed by ultracentrifugation (TL100 rotor, 60 k rpm, 4° C., 30 min in Optima Max™ bench-top ultracentrifuge, Beckman), and the supernatants containing detergent-solubilized NTSR1 were used to determine the total number of expressed receptors by a detergent-based radio-ligand binding assay (see below).
Tritiated neurotensin agonist [^3H]NT ([3,11-tyrosyl-3,5-^3H(N)]-pyro[…] SEQ ID NO:27) was purchased from Perkin Elmer. Ligand-binding assays with detergent-solubilized receptors were carried out in TEBB assay buffer (50 mM Tris pH 7.4, 1 mM EDTA, 40 μg/mL bacitracin, 0.1% BSA) containing 0.1% (w/v) LM, 0.2% (w/v) CHAPS and 0.04% (w/v) CHS. For one-point assays, receptors were incubated with 2 nM [^3H]NT on ice for 1 hour in a volume of 150 μL. The concentration of [^3H]NT used was at least 5-fold above the apparent dissociation constants for detergent-solubilized NTSR1 to allow high receptor occupancy. Separation of the receptor-ligand complex from free ligand (100 μL) was achieved by centrifugation-assisted gel filtration using Bio-Spin™ 30 Tris columns (BioRad), equilibrated with RDB buffer (50 mM Tris-HCl, pH 7.4, 1 mM EDTA, 0.1% (w/v) LM, 0.2% (w/v) CHAPS, 0.04% (w/v) CHS). Non-specific [^3H]NT binding of 220 dpm was subtracted from total binding to calculate the total amount of receptors in T-REx-293-NTSR1-GFP cells. The number of functional NTSR1 was estimated by specific [^3H]NT binding assuming one ligand-binding site per receptor molecule. The number of cells in the assay was derived by cell counting at cell harvest. This approach led to the calculation of the parameter “receptors/cell”.

[2] = system: CMV-Luc2-HygroHEK293 cell line; assay: Validation of miRNAs with luciferase-expressing cells (ONE-Glo / CellTiter-Glo, 12-well); type: cell-based, human; conditions: 40 nM miRNA, 72 h; for improvement of luciferase expression (per cell luciferase activity): 12-well, versus siN.C.
Protocol: CMV-Luc2-HygroHEK293 cell line constitutively expressing luciferase is purchased from Promega. Validation transfections were performed in 12-well plates with miScript miRNA mimics (Qiagen, Cat. No. 219600-S0), SilencerSelect™ Negative Control #2 and lethal control siRNA (Qiagen AllStars Cell Death Control™) served as a control for transfection efficiency. Cells were transfected in duplicates as described above in the screening method with the following modification: 0.1 million cells were transfected with 40 nM miRNA using 6.25 ul Lipofectamine™ RNAiMax in a total volume of 1 mL of media. 72 hours after transfection, 500 μL of ONE-Glo™ Reagent (Promega) was added to one set of replicates for luciferase activity quantification and 500 μL of CellTiter-Glo™ Reagent (Promega) was added to the second set of replicates for viable cell density measurement. All plates were incubated at room temperature for 20 minutes to stabilize luminescent signal and then measured with SpectraMax i3™ plate reader (Molecular Devices). Per cell luciferase production was calculated from overall luciferase activity and viable cell number.

HEK-GPC3-hFc cell line = assay: Validation of miRNAs with GPC3-hFc-expressing cells (ELISA and cell count); type: cell-based, human; conditions: 40 nM miRNA, 6 days after transfection, versus siN.C.
Protocol: HEK-GPC3-hFc cell line constitutively secreting glypican-3 hFc-fusion protein (GPC3-hFc) was a gift from the National Cancer Institute of the NIH. Cells were grown in DMEM supplemented with 10% FBS in a humidified incubator set at 37° C. and 5% CO2.
Cells were transfected in 12-well plates as described above in the screening method with the following modification: 0.15 million cells were transfected with 40 nM miRNA using 6.25 ul Lipofectamine™ RNAiMax in a total volume of 1 mL of media. 6 days after transfection, cell culture supernatant was collected and cleared using centrifuge for GPC3-hFc concentration determination with ELISA and cells were detached and counted by trypan blue exclusion using a CEDEX™ cell quantification system (Roche, Mannheim, Germany). Per cell GPC3-hFc production can be calculated from overall GPC3-hFc yield and viable cell number.
AffiniPure™ F(ab′)2 Fragment Goat Anti-Human IgG (min X Bov, Ms, Rb Sr Prot, Cat. 109-006-170, Jackson Immunology) was used to coat a 96-well plate at 5 μg/mL in PBS buffer, 50 μL per well, at 4° C. overnight. After the plate was blocked with 2% BSA in PBS buffer, pre-diluted cell culture supernatant was added, and the plate was incubated at room temperature for one hour to allow binding to occur. After the plate was washed twice with PBS containing 0.05% Tween 20, Peroxidase-conjugated AffiniPure™ Goat-anti-uman IgG (Cat. 109-035-098, Jackson Immunology) was added at 1:4000 dilutions, 50 ul/well. Following incubating at room temperature for one hour, the plate was washed 4 times and detected with Peroxidase Substrate System (KPL).

Row | Sequence | Signal relative to negative control (%) [1] | MAD-based z-score [1] | improvement of functional expression of NTSR1 compared with siN.C. (NTSR1) | improvement of luciferase expression (per cell luciferase activity) [2] | improvement of per cell GPC3-hFc secretion (HEK-GPC3-hFc cell line) | functional neurotensin receptor molecules per cell (NTSR1; specific [3H]NT binding, 2 nM) | cell growth (viable cell density) [2] | overall production of luciferase higher than negative control siN.C. [2] | change of overall GPC3-hFc production (HEK-GPC3-hFc cell line)
1 | ACCUGGCAUACAAUGUAGAUUU (listed as RNA, chemistry not given here; listed as Homo sapiens) [miR-221-5p, human miRNA mimic] | 248% | 5.3 | not associated with enhanced binding activity |  |  |  |  |  | 
2 | UAAUACUGUCUGGUAAAACCGU (listed as RNA, chemistry not given here; listed as Homo sapiens) [miR-429, human miRNA mimic] | 212% | 4.2 | improved functional activity levels | relevant for improving luciferase expression | enhanced per cell GPC3-hFc secretion |  |  |  | 
3 | AUCGCUGCGGUUGCGAGCGCUGU (listed as RNA, chemistry not given here; listed as Homo sapiens) [miR-639, human miRNA mimic] | 165% | 2.4 | not associated with enhanced binding activity |  |  |  |  |  | 
4 | UUGGGGAAACGGCCGCUGAGUG [miR-2110] | 160% | 2.3 |  | relevant for improving luciferase expression | enhanced per cell GPC3-hFc secretion | 13.8 million functional neurotensin receptor molecules per cell |  |  | 
5 | CACUGGCUCCUUUCUGGGUAGA (listed as RNA, chemistry not given here; listed as Homo sapiens) [miR-892b, human miRNA mimic] | 201% | 3.7 | not associated with enhanced binding activity | 239% |  |  | inhibited cell growth | 188% | 
6 | UAAGGUGCAUCUAGUGCAGAUAG (listed as RNA, chemistry not given here; listed as Homo sapiens) [miR-18a-5p, human miRNA mimic] | 149% | 2.0 | improved functional activity levels | relevant for improving luciferase expression | enhanced per cell GPC3-hFc secretion |  |  |  | effectively enhanced overall GPC3-hFc
7 | CUUUUUGCGGUCUGGGCUUGC (listed as RNA, chemistry not given here; listed as Homo sapiens) [miR-129-5p, human miRNA mimic] | 172% | 2.7 | not associated with enhanced binding activity |  |  |  |  |  | 
